Laboratory results taken from US10877036B2, “Biosensor based on Gβγ-interacting proteins to monitor G-protein activation” (priority 2014, dated 2020).
Changes are numbered by the printed parent chain. Starred links: 1 amine or outer side, 2 acyl side, 3 side chain; linkers in the order of their positions; H or OH if unused. Positions of bridges follow the written chain, without caps; N, C: chain ends. Non-standard residues stand in square brackets, D forms with d. Residues, ends and D or L forms follow the SMILES beside them. *: point of attachment. Leu(3R-OH,Nα-propionyl) = CCC(=O)N[C@H](C(=O)*)[C@H](O)C(C)C; X1 = CC(C)[C@@H](O[*:3])[C@H](N[*:1])C(=O)[*:2]; NMeT = CN[C@H](C(=O)O)[C@@H](C)O; dPhLac = O=C(O)[C@H](O)Cc1ccccc1; NMeA = CN[C@@H](C)C(=O)O; NMeDha = C=C(NC)C(=O)O

Assays:
[1] = system: Gαq substituted at position 67 (Y67C, Y67G, Y67S & Y67L); experiment: Ubo-Qic sensitivity of the activation of mutant Gαq (BRET biosensor); assay type: cell-based, human; conditions: FIG. 5D
Text: (§1) Expression vectors: Receptors and G-proteins. The plasmid encoding AT1 R was a generous gift from Stéphane Laporte (McGill University, Montréal, Canada). Gαq, Gα11, Gα12, Gα13, Gα14, Gα15/16, GαoA, GαoB, Gαz, Gαs, Gαi1, Gαi2, Gαi3, Gβ1, TPαR, D2R and α1BAR were obtained from the cDNA Resource Center (cDNA.org). Plasmids encoding mutant Gα proteins including GαqG66K, GαqY67C and GαqF75G, were obtained by site-directed mutagenesis (PCR overlap) of the Gαq wild-type protein coding sequence using the primers depicted in Table I. The PCR fragments were digested with Acc65I+XhoI restriction enzymes and cloned in pCDNA3.1 Zeo(+) (from Invitrogen®, Carlsbad, Calif.) digested Acc65I+XhoI. […]
(§2) BRET assays in living cells. […] BRET values were then collected using a Mithras™ LB940 Multimode Microplate Reader or a TRISTAR® LB942 Multimode Microplate Reader, equipped with the following filters: 400 nm±70 nm (energy donor) and 515 nm±20 nm (energy acceptor). BRET values were determined by calculating the ratio of the light emitted by GFP (515 nm) over the light emitted by the Rluc (400 nm). To determine the % of activation (Stim as % of basal), BRET values obtained for the agonist treated cells where expressed as a percentage of the BRET values obtained with the corresponding cells treated with vehicle. […]

Gα12 = target: T1, Gα12 (Homo sapiens, UniProt Q03113); experiment: Ubo-Qic selectivity, TPαR-mediated G-protein activation (BRET biosensor); assay type: cell-based; conditions: U-46619 100 nM, FIG. 5C
T1 construct: host or cells: HEK293
T1 sequence (Q03113 1-381): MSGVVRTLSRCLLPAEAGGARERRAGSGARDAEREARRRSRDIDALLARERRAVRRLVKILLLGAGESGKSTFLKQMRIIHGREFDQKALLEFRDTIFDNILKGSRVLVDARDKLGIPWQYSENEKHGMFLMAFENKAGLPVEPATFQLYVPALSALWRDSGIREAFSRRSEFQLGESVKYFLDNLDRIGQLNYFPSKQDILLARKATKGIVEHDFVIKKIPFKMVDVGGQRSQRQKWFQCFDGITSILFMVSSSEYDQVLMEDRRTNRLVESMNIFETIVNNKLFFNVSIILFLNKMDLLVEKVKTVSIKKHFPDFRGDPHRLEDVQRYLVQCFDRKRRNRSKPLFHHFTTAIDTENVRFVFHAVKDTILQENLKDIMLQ
Method: (§3) BRET assays in living cells. Cells seeded in 96-well plates were washed twice with Phosphate Buffered Saline (PBS), followed by Tyrode buffer addition (composition: 137 mM NaCl, 0.9 mM KCl, 1 mM MgCl2, 11.9 mM NaHCO3, 3.6 mM NaH2PO4, 25 mM HEPES, 5.5 mM Glucose and 1 mM CaCl2, pH 7.4). The cells were then treated with the different ligands or vehicle for the indicated times. The Rluc substrate, coelenterazine 400a, was added at a final concentration of 2.5 μM and cells were further incubated for an additional 5 minutes. BRET values were then collected using a Mithras™ LB940 Multimode Microplate Reader or a TRISTAR® LB942 Multimode Microplate Reader, equipped with the following filters: 400 nm±70 nm (energy donor) and 515 nm±20 nm (energy acceptor). BRET values were determined by calculating the ratio of the light emitted by GFP (515 nm) over the light emitted by the Rluc (400 nm). To determine the % of activation (Stim as % of basal), BRET values obtained for the agonist treated cells where expressed as a percentage of the BRET values obtained with the corresponding cells treated with vehicle.
(§4) G-protein inhibitors. BRET assays were performed as described previously, except that cells were pre-treated overnight at 37° C. with 100 ng/ml of pertussis toxin, or, for 20 minutes at 37° C. with 100 nM of Ubo-Qic.

Gα15/16 = target: T2, Gα15/16 (Homo sapiens, UniProt P30679); experiment: as above; assay type: cell-based; conditions: U-46619 100 nM, FIG. 5C
T2 construct: host or cells: HEK293
T2 sequence (P30679 1-374): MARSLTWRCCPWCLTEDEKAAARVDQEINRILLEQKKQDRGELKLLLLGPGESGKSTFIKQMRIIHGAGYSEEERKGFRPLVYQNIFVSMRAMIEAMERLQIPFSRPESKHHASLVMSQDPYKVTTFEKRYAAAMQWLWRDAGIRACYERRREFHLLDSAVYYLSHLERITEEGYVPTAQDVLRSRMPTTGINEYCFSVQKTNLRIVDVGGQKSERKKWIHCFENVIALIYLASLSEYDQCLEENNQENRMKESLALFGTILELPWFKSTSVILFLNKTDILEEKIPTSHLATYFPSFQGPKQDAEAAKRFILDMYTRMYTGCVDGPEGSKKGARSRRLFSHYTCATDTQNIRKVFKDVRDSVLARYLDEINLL
Method: as §3, §4

Gα13 = target: T3, Gα13 (Homo sapiens, UniProt Q14344); experiment: as above; assay type: cell-based; conditions: U-46619 100 nM, FIG. 5C
T3 construct: host or cells: HEK293
T3 sequence (Q14344 1-377): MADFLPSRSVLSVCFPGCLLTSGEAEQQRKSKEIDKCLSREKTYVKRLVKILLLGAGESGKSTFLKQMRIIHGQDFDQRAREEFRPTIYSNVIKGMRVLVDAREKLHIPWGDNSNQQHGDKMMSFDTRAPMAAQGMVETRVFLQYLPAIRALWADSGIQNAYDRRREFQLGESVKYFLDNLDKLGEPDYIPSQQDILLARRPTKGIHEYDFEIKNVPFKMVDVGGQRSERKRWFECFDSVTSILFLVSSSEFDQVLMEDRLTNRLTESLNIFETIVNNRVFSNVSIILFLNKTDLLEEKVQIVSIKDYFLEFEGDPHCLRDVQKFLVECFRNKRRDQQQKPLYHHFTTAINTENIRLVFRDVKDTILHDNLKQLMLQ
Method: as §3, §4

Gαi1 = target: T4, Gαi1 (Homo sapiens, UniProt P63096); experiment: G-protein inhibitor pre-treatment, D2R/Gαi1 BRET biosensor response; assay type: cell-based; conditions: D2R/Gαi1, agonist rotigotine; 100 nM Ubo-Qic for 20 minutes or 100 ng/ml pertussis toxin overnight; FIG. 5B
T4 construct: host or cells: HEK293
T4 sequence (P63096 whole entry): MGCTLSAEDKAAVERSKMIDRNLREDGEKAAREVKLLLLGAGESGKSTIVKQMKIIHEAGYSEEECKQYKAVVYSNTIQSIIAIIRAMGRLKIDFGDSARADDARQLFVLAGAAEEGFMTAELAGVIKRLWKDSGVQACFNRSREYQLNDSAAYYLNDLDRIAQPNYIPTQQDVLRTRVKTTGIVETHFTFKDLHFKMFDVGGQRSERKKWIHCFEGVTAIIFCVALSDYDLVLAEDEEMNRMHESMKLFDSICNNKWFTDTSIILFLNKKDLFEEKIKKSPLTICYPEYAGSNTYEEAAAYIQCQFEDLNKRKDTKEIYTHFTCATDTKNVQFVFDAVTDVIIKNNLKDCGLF
Method: as §3, §4

GαqF75G = target: T5, GαqF75G (Homo sapiens, UniProt P50148, F75G); experiment: Ubo-Qic sensitivity of the activation of mutant Gαq (BRET biosensor); assay type: cell-based; conditions: Gαq Phe75 to glycine; FIG. 5D
T5 construct: expressed in transfected cells; host or cells: HEK293
T5 sequence (P50148 1-359 F75G): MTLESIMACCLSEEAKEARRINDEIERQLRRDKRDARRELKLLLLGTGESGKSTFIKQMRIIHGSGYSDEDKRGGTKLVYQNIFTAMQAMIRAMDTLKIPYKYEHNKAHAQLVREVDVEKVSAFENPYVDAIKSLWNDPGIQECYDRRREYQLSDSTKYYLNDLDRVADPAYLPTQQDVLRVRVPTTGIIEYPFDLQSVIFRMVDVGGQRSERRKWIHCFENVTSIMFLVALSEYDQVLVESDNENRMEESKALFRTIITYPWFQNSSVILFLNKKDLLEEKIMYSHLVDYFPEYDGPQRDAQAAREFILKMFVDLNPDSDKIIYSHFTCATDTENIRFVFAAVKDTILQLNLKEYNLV
Text: as §1, §2

Gαq = target: T6, Gαq (Homo sapiens, UniProt P50148); experiment: G-protein inhibitor pre-treatment, TPαR/Gαq BRET biosensor response; assay type: cell-based; conditions: agonist U-46619, 100 nM Ubo-Qic for 20 minutes or 100 ng/ml pertussis toxin overnight, FIG. 5A
T6 construct: host or cells: HEK293
T6 sequence (P50148 1-359): T5 sequence (P50148 1-359 F75G) with G75F
Method: as §3, §4

[2] = target: T7, angiotensin II type 1 receptor (AT1R) (Homo sapiens, UniProt P30556); experiment: Ligand profiling with the βγIP-based BRET biosensor, AT1R with Gαq or Gα12; assay type: cell-based; conditions: Gα12 versus Gαq, FIG. 8C
T7 construct: host or cells: HEK293
T7 sequence (P30556 1-359): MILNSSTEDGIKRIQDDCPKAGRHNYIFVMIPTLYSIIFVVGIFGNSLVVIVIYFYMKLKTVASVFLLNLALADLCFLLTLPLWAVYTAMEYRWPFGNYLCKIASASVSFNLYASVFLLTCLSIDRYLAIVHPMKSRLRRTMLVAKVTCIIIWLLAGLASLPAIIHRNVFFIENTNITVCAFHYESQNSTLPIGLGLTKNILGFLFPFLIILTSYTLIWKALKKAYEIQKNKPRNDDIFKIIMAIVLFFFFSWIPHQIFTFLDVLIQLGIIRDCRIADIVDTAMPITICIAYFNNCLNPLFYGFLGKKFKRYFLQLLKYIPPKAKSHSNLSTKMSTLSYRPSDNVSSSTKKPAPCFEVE
Method: Cell culture and transfections. Human embryonic kidney 293 (HEK293) cells were maintained in Dulbecco's Modified Eagle's Medium (DMEM) supplemented with 10% fetal bovine serum, 100 unit/ml penicillin/streptomycin at 37° C. in a humidified atmosphere with 5% CO2. Two days before the experiments, HEK293 cells were transfected with the indicated plasmids using poly-ethylenimine 25-kDa linear (PEI) as a transfecting agent (at a ratio of 3 to 1, PEI/DNA) (Hamdan, Rochdi et al. 2007), and then directly seeded in 96-well plates pre-treated with poly-L-ornithine hydrobromide or Poly-D-Lysine, at a density of 35,000 cells per well (for BRET and PCA assays in living cells), or 6-well plates at a density of 1,000,000 cells per well (for BRET assays on membrane preparations).
BRET assays in living cells. […] BRET values were then collected using a Mithras™ LB940 Multimode Microplate Reader or a TRISTAR® LB942 Multimode Microplate Reader, equipped with the following filters: 400 nm±70 nm (energy donor) and 515 nm±20 nm (energy acceptor). BRET values were determined by calculating the ratio of the light emitted by GFP (515 nm) over the light emitted by the Rluc (400 nm). To determine the % of activation (Stim as % of basal), BRET values obtained for the agonist treated cells where expressed as a percentage of the BRET values obtained with the corresponding cells treated with vehicle.

Compound | sensitivity of mutant Gαq activation to the inhibitor [1] | sensitivity of G-protein activation to the inhibitor (Gα12) | sensitivity of G-protein activation to the inhibitor (Gα15/16) | sensitivity of G-protein activation to the inhibitor (Gα13) | effect of pre-treatment on the biosensor BRET response after agonist incubation (Gαi1) | inhibition of mutant Gαq activation (GαqF75G) | effect of pre-treatment on the BRET response following agonist stimulation (Gαq) | efficacy of G-protein activation relative to angiotensin II response [2]
C=C1C(=O)N[C@@H](C)C(=O)N(C)[C@@H](C)C(=O)N[C@@H]([C@H](OC(=O)[C@@H](NC(=O)CC)[C@H](O)C(C)C)C(C)C)C(=O)N(C)[C@@H]([C@@H](C)OC)C(=O)O[C@H](C(C)C)[C@H](NC(C)=O)C(=O)O[C@H](Cc2ccccc2)C(=O)N1C [Ubo-Qic, L-threonine,(3R)-N-acetyl-3-hydroxy-L-leucyl-(aR)-a-hydroxybenzenepropanoyl-2,3-idehydro-N-methylalanyl-L-alanyl-N-methyl-L-alanyl-(3R)-3-[[(2S,3R)-3-hydroxy-4-methyl-1-oxo-2-[(1-oxopropyl)amino]pentyl]oxy]-L-leucyl-N,O-dimethyl-,(7→1)-lactone (9CI)] (Ac-[X1][dPhLac][NMeDha]A[NMeA][X1](Leu(3R-OH,Nα-propionyl))[NMeT](Me); ester 1-C) | resistance | insensitive | insensitive | insensitive | no detectable effect | partial | completely abolished | 
[Asp^1, Val^5, Gly^8]-AngII [DVG] |  |  |  |  |  |  |  | better efficacy for Gα12 activation than Gαq
